≈ marks a conversion by molar mass, not a printed value. Entries after “also recorded” stand apart in the source; their conditions may differ. Structures can show the parent of a compound that is named as a salt. Where two headings read alike, the source gives them in different places. Each block holds one compound with its values, some of them ahead of it.
Tests used:
[1] = Drying and humidity exposure (>90% RH) with XRPD; conditions: for physical stability on humidity exposure: >90% RH, overnight / one day; for physical stability on humidity exposure / stability on drying and humidity exposure: XRPD; for stability on drying and humidity exposure: dried under vacuum at 50° C., then >90% RH one day; for physical stability in humid environment, prolonged: >90% relative humidity, days to one week
Protocol: XRPD analysis was done in three stages. XRPD of the wet cake was done for all samples (where solids were observed). Unique solids were then left on XRPD plates and dried under vacuum at 50° C. for at least 3 hours. XRPD of unique dry solids was then done. Solids were then exposed to >90% relative humidity for one day and XRPD on resulted solids was done. The humid environment was generated by placing a beaker of saturated potassium sulfate in water in a sealed container. All XRPD patterns were compared to counter ion XRPD patterns and known free molecule patterns.
A crystalline form of the free base was exposed to high humidity (>90% RH) overnight. The humid environment was generated by placing a beaker of saturated potassium sulfate in water in a sealed container.

[2] = Exposure to dry conditions and re-humidification with XRPD; format: physicochemical
Protocol: The 1:1 Compound (I) Crystalline HCl salt Monohydrate obtained from Example 3.1 was exposed to various drying conditions and then analyzed by XRPD.
The conditions were: (1) room temperature in vial containing P2O5 at 50° C., (2) 60° C. under vacuum, and (3) heating to 140° C. in DSC.
The HCl salt exposed to P2O5 at 50° C. was sampled for XRPD at the 7 day mark.

[3] = Humidity exposure at 75% relative humidity / 40° C. for one week with XRPD; conditions: 75% RH / 40° C.
Protocol: The Sesqui-Succinate obtained in Example 2.1 was exposed to 75% relative humidity at 40° C. for one week. The samples were placed in a 4 mL vial covered with a Kimwipe® and then placed in a 20 mL vial containing 3-4 mL saturated NaCl in water. The 20 mL vials were sealed and held at 40° C. Solids were collected for XRPD analysis after one week.
HCl salt Monohydrate Form A was placed at 40° C./75% relative humidity for one week. About 10 mg sample was placed in a 4 mL vial covered with a Kimwipe®. The vial was then placed inside a 20 mL sealed vial containing saturated aqueous sodium chloride.

[4] = Solubility at 37° C. in water and simulated fluids (FaSSIF, FaSSGF); format: physicochemical; conditions: for Solubility at 37° C. FaSSGF: fasted state simulated gastric fluid; for Solubility at 37° C. FaSSIF: fasted state simulated intestinal fluid
From the text: Crystalline salts were characterized and evaluated for viability based on melting point, crystallinity, stability on drying and humidity exposure, water solubility, polymorphism, and acceptability of counter-ion.

[5] = Variable humidity and variable temperature XRPD (VH-XRPD, VT-XRPD); format: physicochemical; conditions: for variable humidity XRPD: change of crystalline structure: 0-90% RH; for variable temperature XRPD: change of crystalline structure: ambient to 160° C.
Protocol: Powder X-ray diffraction was done using a Rigaku MiniFlex 600 or a Bruker D8 Advance equipped with Lynxeye detector in reflection mode (i.e. Bragg-Brentano geometry). Samples were prepared on Si zero-return wafers. A typical scan is from 2θ of 4 to 30 degrees, with step size 0.05 degrees over five minutes with 40 kV and 15 mA. A high-resolution scan is from 2θ of 4 to 40 degrees, with step size 0.05 degrees over thirty minutes with 40 kV and 15 mA. Typical parameters for XRPD are listed below.

[6] = Dynamic Vapor Sorption (DVS); format: physicochemical; conditions: for XRPD after DVS measurement: after 2-95% RH cycle; for DVS Mass Change: between 2 and 95% relative humidity at 25° C.
Protocol: Dynamic Vapor Sorption (DVS) was done using a DVS Intrinsic 1. The sample was loaded into a sample pan and suspended from a microbalance. A typical sample mass for DVS measurement is 25 mg. Nitrogen gas bubbled through distilled water provides the desired relative humidity. The sample was held for a minimum of 5 min at each level and only progressed to the next humidity level if there was <0.002% change in weight between measurements (interval: 60 seconds) or […] had elapsed. A typical measurement comprises the steps: • 1—Equilibrate at 50% RH • 2—50% to 2%. (50%, 40%, 30%, 20%, 10% and 2%) • a. Hold minimum of 5 mins and maximum of 60 minutes at each humidity. • The pass criteria is less than 0.002% change • 3—2% to 95% (2%, 10%, 20%, 30%, 40%, 50%, 60%, 70%, 80%, 90%, 95%) • a. Hold minimum of 5 mins and maximum of 60 minutes at each humidity.
The pass criteria is less than 0.002% change • 4—95% to 2% (95%, 80%, 70%, 60%, 50%, 40%, 30%, 20%, 10%, 2%) • a. Hold minimum of 5 mins and maximum of 60 minutes at each humidity. • The pass criteria is less than 0.002% change • 5—2% to 50% (2%, 10%, 20%, 30%, 40%, 50%) • a. Hold minimum of 5 mins and maximum of 60 minutes at each humidity. • The pass criteria is less than 0.002% change

[7] = Solubility in organic solvent systems at room temperature; format: physicochemical; conditions: organic solvent or mixture, most organic solvents tested
[8] = listed as Compound (I) Sesqui-Succinate salt Form A
[9] = listed as Compound (I) Sesqui-Succinate Form A
[10] = listed as free base of Compound (I)
[11] = listed as HCl salt Monohydrate Form A

SMILES: CCOC1(c2ccc(-c3cc4c(N5CCN(C(=O)O[C@@H]6CCOC6)CC5)ccnn4c3)nc2)CCN(C(C)C)CC1 [Salicylate]
physical stability on humidity exposure ([1]; listed as salicylic acid): did not deliquesce

SMILES: CCOC1(c2ccc(-c3cc4c(N5CCN(C(=O)O[C@@H]6CCOC6)CC5)ccnn4c3)nc2)CCN(C(C)C)CC1 [fumarate Form B]
stability on drying and humidity exposure [1]: stable on drying and humidity exposure

SMILES: CCOC1(c2ccc(-c3cc4c(N5CCN(C(=O)O[C@@H]6CCOC6)CC5)ccnn4c3)nc2)CCN(C(C)C)CC1 [Form D]
physical stability on humidity exposure [1]: converted to Form A (monohydrate)
form conversion on exposure to ambient conditions ([2]; bench, 22-23° C., 28-35% RH, 2.25 hours): converted to Form A
physical stability after one week humidity exposure [3]: converted to Form A (monohydrate)

SMILES: CCOC1(c2ccc(-c3cc4c(N5CCN(C(=O)O[C@@H]6CCOC6)CC5)ccnn4c3)nc2)CCN(C(C)C)CC1 [Benzoate]
physical stability on humidity exposure ([1]; listed as benzoic acid): did not deliquesce
water solubility (in words) ([4]; salt screening evaluation): poor water solubility

SMILES: CCOC1(c2ccc(-c3cc4c(N5CCN(C(=O)O[C@@H]6CCOC6)CC5)ccnn4c3)nc2)CCN(C(C)C)CC1 [bis-HCl]
physical stability on humidity exposure [1]: deliquesced
physical stability on humidity exposure ([1]; listed as 2:1 HCl): deliquescence

More lines, main results first:

solubility in water and in simulated gastric fluids (in words) [4]: good solubility
SMILES: CCOC1(c2ccc(-c3cc4c(N5CCN(C(=O)O[C@@H]6CCOC6)CC5)ccnn4c3)nc2)CCN(C(C)C)CC1 [fumarate]

physical stability on humidity exposure ([1]; listed as succinic acid): did not deliquesce
stability on drying and humidity exposure [1]: stable on drying and humidity exposure
solubility in water and in simulated gastric fluids (in words) [4]: good solubility
Solubility at 37° C. FaSSGF [4]: >25.9 mg/mL
Solubility at 37° C. FaSSIF [4]: >22.2 mg/mL
solubility in water and simulated fluids (all fluids) ([4]; in all fluids): > 22 mg/mL
Solubility at 37° C. Water ([4]; water): >34.0 mg/mL
solubility ([4]; water, FaSSIF and FaSSGF (all fluids), thermodynamic from solid, in all fluids): > 22 mg/mL
variable humidity XRPD: change of crystalline structure [5, 8]: no change in the crystalline structure
variable temperature XRPD: change of crystalline structure [5, 8]: no change in the crystalline structure
DVS mass change occurring above 80% relative humidity ([6]; 25° C., above 80% RH): 0.34-0.35 wt. %
XRPD after DVS measurement [6, 9]: remained as Form-A
DVS Mass Change [6]: 0.59-0.60 wt. %
DVS Mass Change [6, 9]: 0.59-0.60 wt. %
hygroscopicity (in words) ([6]; listed as 1.5:1 succinic acid salt): non-hygroscopic
physical stability after one week humidity exposure [3, 9]: physically stable by XRPD
SMILES: CCOC1(c2ccc(-c3cc4c(N5CCN(C(=O)O[C@@H]6CCOC6)CC5)ccnn4c3)nc2)CCN(C(C)C)CC1 [Succinate Form A]
hygroscopicity (in words) [6]: less hygroscopic than the mono-HCl salt and freebase

physical stability on humidity exposure ([1]; listed as maleic acid): deliquesced
SMILES: CCOC1(c2ccc(-c3cc4c(N5CCN(C(=O)O[C@@H]6CCOC6)CC5)ccnn4c3)nc2)CCN(C(C)C)CC1 [maleate]
physical stability on humidity exposure [1]: deliquescence; also recorded: deliquesced

physical stability on humidity exposure [1]: deliquesced
physical stability on humidity exposure ([1]; listed as besylate): deliquescence
SMILES: CCOC1(c2ccc(-c3cc4c(N5CCN(C(=O)O[C@@H]6CCOC6)CC5)ccnn4c3)nc2)CCN(C(C)C)CC1 [Besylate]

physical stability on humidity exposure [1]: partially converted to Form A
SMILES: CCOC1(c2ccc(-c3cc4c(N5CCN(C(=O)O[C@@H]6CCOC6)CC5)ccnn4c3)nc2)CCN(C(C)C)CC1 [Form I]

physical stability after one week humidity exposure [3]: crystalline Form A
SMILES: CCOC1(c2ccc(-c3cc4c(N5CCN(C(=O)O[C@@H]6CCOC6)CC5)ccnn4c3)nc2)CCN(C(C)C)CC1 [Amorphous solid (Compound (I) Sesqui-Succinate)]

solubility [7]: > 200 mg/mL
physical stability on humidity exposure ([1]; listed as free base): lost some crystallinity
physical stability in humid environment, prolonged ([1]; listed as free base): deliquesced
physical stability in humid environment, prolonged [1, 10]: physically unstable
physical stability in humid environment, prolonged ([1]; listed as freebase): turned into a sticky gum
behaviour on exposure to water [1, 10]: tends to gum
behaviour on exposure to water ([1]; listed as freebase): gums in water
Solubility at 37° C. FaSSGF ([4]; listed as Freebase): 7.29 mg/mL (≈ 13 mM)
Solubility at 37° C. FaSSGF ([4]; listed as freebase): ~17 mg/mL (≈ 30.2 mM)
Solubility at 37° C. FaSSIF ([4]; listed as Freebase): 17.9 mg/mL (≈ 31.8 mM)
Solubility at 37° C. FaSSIF ([4]; listed as freebase): ~7 mg/mL (≈ 12.4 mM)
Solubility at 37° C. Water ([4]; water, listed as freebase): 0.08 mg/mL (≈ 0.142 mM)
DVS mass change occurring above 70% relative humidity ([6]; 25° C., above 70% RH): 0.46-0.53 wt. %
DVS Mass Change ([6]; listed as Freebase): 0.88-0.92 wt. %
DVS Mass Change [6, 10]: 0.88-0.92 wt. %
SMILES: CCOC1(c2ccc(-c3cc4c(N5CCN(C(=O)O[C@@H]6CCOC6)CC5)ccnn4c3)nc2)CCN(C(C)C)CC1 [Compound (I)]

physical stability on humidity exposure ([1]; listed as HCl (1 eq.)): did not deliquesce
XRPD after exposure to drying conditions ([2]; P2O5 at 50° C., 60° C. under vacuum, heating to 140° C. in DSC): a new XRPD pattern was observed
solubility in water and in simulated gastric fluids (in words) [4]: good solubility
Solubility at 37° C. FaSSGF [4]: 6.96 mg/mL
Solubility at 37° C. FaSSGF ([4]; listed as mono-HCl salt): > 30 mg/mL
Solubility at 37° C. FaSSIF [4]: 30.9 mg/mL
Solubility at 37° C. FaSSIF ([4]; listed as mono-HCl salt): ~7 mg/mL
Solubility at 37° C. Water ([4]; water): 33.4 mg/mL
Solubility at 37° C. Water ([4]; water, listed as mono-HCl salt): > 30 mg/mL
variable humidity XRPD: change of crystalline structure [5, 11]: small shift
DVS mass change occurring below 20% relative humidity ([6]; 25° C., below 20% RH): 0.99-1.11 wt. %
XRPD after DVS measurement [6, 11]: extra peaks were observed
DVS Mass Change [6]: 1.30-1.43 wt. %
DVS Mass Change [6, 11]: 1.30-1.43 wt. %
hygroscopicity (in words) ([6]; listed as 1:1 hydrochloric acid salt): non-hygroscopic
physical stability after one week humidity exposure [3, 11]: minor peak shifts
SMILES: CCOC1(c2ccc(-c3cc4c(N5CCN(C(=O)O[C@@H]6CCOC6)CC5)ccnn4c3)nc2)CCN(C(C)C)CC1 [Mono-HCl Form A]
variable temperature XRPD: change of crystalline structure [5, 11]: does not appear to collapse and/or re-arrange

Reference: patent US20220281879A1, “SALT AND CRYSTAL FORMS OF AN ACTIVIN RECEPTOR-LIKE KINASE INHIBITOR” (Blueprint Medicines Corporation, priority 2019, published 2022)
